Data taken from patent US8329686B2, “Isatin analogues and uses therefor” (Washington University, priority 2006, dated 2012).
Read-outs that look alike come from different tables or passages of the source.

Key:
[1] = target: T1, caspase 7 (Homo sapiens, UniProt P55210); test: Enzyme inhibition assay, caspase 7 (fluorogenic Ac-DEVD-AMC); format: biochemical
T1 construct: purchased Sigma-Aldrich (St. Louis, Mo.)
T1 sequence (P55210 24-198 limits assumed): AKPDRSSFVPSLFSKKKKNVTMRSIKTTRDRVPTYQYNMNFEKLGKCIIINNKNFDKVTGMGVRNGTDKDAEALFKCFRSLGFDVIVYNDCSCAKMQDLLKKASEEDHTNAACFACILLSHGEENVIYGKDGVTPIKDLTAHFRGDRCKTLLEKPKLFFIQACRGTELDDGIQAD
T1 sequence (P55210 207-303 limits assumed): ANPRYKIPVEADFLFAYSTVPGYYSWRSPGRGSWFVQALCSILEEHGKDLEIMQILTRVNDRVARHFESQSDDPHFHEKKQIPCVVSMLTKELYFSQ

[2] = target: T2, caspase-3 (Homo sapiens, UniProt P42574); test: Enzyme inhibition assay, caspase 3 (fluorogenic Ac-DEVD-AMC); format: biochemical
T2 construct: purchased Sigma-Aldrich (St. Louis, Mo.)
T2 sequence (P42574 29-175 limits assumed): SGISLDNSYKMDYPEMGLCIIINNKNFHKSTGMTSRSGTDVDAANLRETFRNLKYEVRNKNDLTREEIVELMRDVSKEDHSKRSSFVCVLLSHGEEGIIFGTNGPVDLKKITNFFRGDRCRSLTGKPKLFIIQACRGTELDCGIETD
T2 sequence (P42574 176-277 limits assumed): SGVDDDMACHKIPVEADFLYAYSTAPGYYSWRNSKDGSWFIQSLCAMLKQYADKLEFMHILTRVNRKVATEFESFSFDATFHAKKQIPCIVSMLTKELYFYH

[3] = target: T3, caspase 6 (Homo sapiens, UniProt P55212); test: Enzyme inhibition assay, caspase 6 (fluorogenic Ac-VEID-AMC); format: biochemical
T3 construct: purchased Sigma-Aldrich (St. Louis, Mo.)
T3 sequence (P55212 24-179 limits assumed): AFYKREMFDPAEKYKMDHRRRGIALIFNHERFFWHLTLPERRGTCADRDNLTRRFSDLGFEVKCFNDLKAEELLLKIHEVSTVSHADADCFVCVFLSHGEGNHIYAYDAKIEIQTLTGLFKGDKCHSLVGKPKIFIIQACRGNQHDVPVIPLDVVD
T3 sequence (P55212 194-293 limits assumed): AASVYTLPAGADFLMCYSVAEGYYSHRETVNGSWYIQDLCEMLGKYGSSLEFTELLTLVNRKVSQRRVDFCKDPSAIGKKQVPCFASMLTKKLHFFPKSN

[4] = target: T4, caspase 1 (Homo sapiens, UniProt P29466); test: Enzyme inhibition assay, caspase 1 (fluorogenic Ac-YVAD-AMC); format: biochemical
T4 construct: purchased BIOMOL Research Laboratories (Plymouth Meeting, Pa.)
T4 sequence (P29466 120-297 limits assumed): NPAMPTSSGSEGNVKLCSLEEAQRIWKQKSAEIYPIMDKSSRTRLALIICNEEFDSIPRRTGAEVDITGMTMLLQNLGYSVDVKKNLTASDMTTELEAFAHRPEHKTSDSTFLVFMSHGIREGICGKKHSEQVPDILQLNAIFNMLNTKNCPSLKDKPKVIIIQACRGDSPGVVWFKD
T4 sequence (P29466 317-404 limits assumed): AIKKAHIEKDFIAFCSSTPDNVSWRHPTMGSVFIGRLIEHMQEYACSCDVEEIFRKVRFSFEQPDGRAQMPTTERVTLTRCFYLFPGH
Protocol: (§1) Enzyme Assays. Inhibition of recombinant human caspase-3 and other caspases by the isatin analogues was assessed using a fluorometric assay by measuring the accumulation of a fluorogenic product, 7-amino-4-methylcoumarin (7-AMC).
(§2) Enzyme Inhibition Assays. Recombinant human caspases (3, 6, 7, and 8) and their peptide-specific substrates (Ac-DEVDAMC, Ac-VEID-AMC, Ac-DEVD-AMC, and Ac-IETD-AMC, respectively) were purchased from Sigma-Aldrich (St. Louis, Mo.) with the exception of caspase 1 and its substrate (Ac-YVAD-AMC), which were obtained from BIOMOL Research Laboratories (Plymouth Meeting, Pa.). The enzymatic activity of caspases was determined by measuring the accumulation of the fluorogenic product 7-amino-4-methylcoumarin (AMC). All assays were prepared in 96-well format at a volume of 210 μL per well and consisted of 100 mM Na+ HEPES (pH 7.4), 10% sucrose, 100 mM NaCl, 0.1% CHAPS, 5 mM 2-mercaptoethanol, 2 mM EDTA, 10 μM Ac-YVAD-AMC (caspase 1); 20 mMNa^+ HEPES (pH 7.4), 10% sucrose, 100 mMNaCl, 0.1% CHAPS, 2 mM EDTA, 10 μM Ac-DEVD-AMC (caspase 3); 20 mM Na^+ HEPES (pH 7.4), 10% sucrose, 100 mM NaCl, 0.1% CHAPS, 2 mM EDTA, 10 μM Ac-VEID-AMC (caspase 6); 20 mM Na+ HEPES (pH 7.4), 100 mM NaCl, 10% sucrose, 0.1% CHAPS, 5 mM 2-mercaptoethanol, 2 mM EDTA, 10 μM Ac-DEVD-AMC (caspase 7); 20 mM Na+ HEPES (pH 7.4), 10% sucrose, 100 mM NaCl, 0.1% CHAPS, 2 mM EDTA, 10 μM Ac-IETD-AMC (caspase 8).
(§3) Recombinant caspases were first assayed to determine the optimal concentration for each experiment. Optimal concentrations were based in the linear range of the enzyme activation curves. Peptide inhibitors with known IC50 values were tested together with the compounds as a control for each caspase assay. […] Peptide and nonpeptide inhibitors were dissolved in DMSO, and a 2 serial dilution was performed prior to screening in order to obtain desired concentrations. 10 μL was added to each well containing 100 μL caspase solution and allowed to incubate on ice for 30 min. […] The final concentration of DMSO in all wells was 5% of the total volume. In caspase-1 and caspase-7 assays, 10 mM 2-mercaptoethanol was added to the substrate solution for full activation of the enzymes.
(§4) Compounds were tested in duplicate, and IC50 curves were calculated for all inhibitors assayed. Final IC50s were the average of three independent experiments.

[5] = target: T5, caspase 8 (Homo sapiens, UniProt Q14790); test: Enzyme inhibition assay, caspase 8 (fluorogenic Ac-IETD-AMC); format: biochemical
T5 construct: purchased Sigma-Aldrich (St. Louis, Mo.)
T5 sequence (Q14790 217-374 limits assumed): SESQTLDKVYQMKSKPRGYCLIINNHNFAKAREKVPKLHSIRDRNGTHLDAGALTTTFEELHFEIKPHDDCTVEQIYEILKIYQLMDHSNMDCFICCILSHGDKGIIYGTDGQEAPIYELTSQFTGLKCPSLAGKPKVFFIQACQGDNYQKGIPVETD
T5 sequence (Q14790 385-479 limits assumed): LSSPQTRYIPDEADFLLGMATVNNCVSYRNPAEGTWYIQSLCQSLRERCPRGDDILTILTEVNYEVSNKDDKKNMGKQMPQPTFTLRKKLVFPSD
Protocol: as §1, §2, §3, §4

[6] = Table 6, read-out: IC50 (nM) caspase-7
[7] = Table 6, read-out: IC50 (nM) caspase-6
[8] = Table 6, read-out: IC50 (nM) caspase-3
[9] = Table 6, read-out: IC50 (nM) caspase-1
[10] = Table 6, read-out: IC50 (nM) caspase-8
[11] = Table 2, read-out: IC50 (nM) Caspase 8
[12] = Table 7, read-out: IC50 (nM) Casp-8

SMILES: O=C1C(=O)N(Cc2ccc(F)cc2)c2ccc(S(=O)(=O)N3CC[C@H]3COc3ccccc3)cc21 [Compound 18e, (S)-1-(4-Fluorobenzyl)-5-(2-phenoxymethyl-azetidine-1-sulfonyl)-1H-indole-2,3-dione]
- IC50 ([1]; Table 5, read-out: IC50 (nM) caspase-7): 21 ± 5.6 nM
- IC50 ([2]; Table 5, read-out: IC50 (nM) caspase-3): 8.8 ± 1.4 nM
- melting point: 164.6 to 165.7 °C

SMILES: O=C1C(=O)N(Cc2cccc(F)n2)c2ccc(S(=O)(=O)N3CCC[C@H]3COc3ccccc3)cc21 [Compound 11i, (S)-1-(6-Fluoro-pyridin-2-yl-methyl)-5-(2-phenoxymethyl-pyrrolidine-1-sulfonyl)-1H-indole-2,3-dione]
- IC50 ([1]; Table 4, read-out: IC50 (nM) caspase-7): 22.2 ± 4 nM
- IC50 ([2]; Table 4, read-out: IC50 (nM) caspase-3): 9.1 ± 1.8 nM
- melting point: 128.6 to 129.4 °C

SMILES: O=C1C(=O)N(Cc2ccc(F)cc2)c2ccc(S(=O)(=O)N3CCC[C@H]3COc3ccccc3)cc21 [Compound 11c, (S)-1-(4-Fluorobenzyl)-5-(2-phenoxymethyl-pyrrolidine-1-sulfonyl)-1H-indole-2,3-dione]
- melting point: 74.5 to 75.4 °C

SMILES: O=C1C(=O)N(Cc2ccccc2)c2ccc(S(=O)(=O)N3CCCC3COc3cccnc3)cc21 (stereo not shown) [Compound 21b, 1-Benzyl-5-(2-(pyridin-3-yl-oxymethyl)-pyrrolidine-1-sulfonyl)-1H-indole-2,3-dione]
- IC50 [1, 6]: 14.1 ± 3.4 nM
- IC50 [3, 7]: > 5000 nM
- IC50 [2, 8]: 5.2 ± 1.6 nM
- IC50 [4, 9]: > 10000 nM
- IC50 [5, 10]: > 50000 nM

SMILES: N#CC(C#N)=C1C(=O)N(Cc2ccc(OCCF)cc2)c2ccc(S(=O)(=O)N3CCC[C@H]3COc3ccccc3)cc21 [WC-II-92]
- IC50 ([1]; Table 2, read-out: IC50 (nM) Caspase 7): 96.3 ± 20.7 nM
- IC50 ([3]; Table 2, read-out: IC50 (nM) Caspase 6): 927 ± 35 nM
- IC50 ([2]; Table 2, read-out: IC50 (nM) Caspase 3): 18.3 ± 0.4 nM
- IC50 ([4]; Table 2, read-out: IC50 (nM) Caspase 1): 10000 nM
- IC50 [5, 11]: > 50000 nM

SMILES: N#CC(C#N)=C1C(=O)N(Cc2ccccc2)c2ccc(S(=O)(=O)N3CCCC3COc3cccnc3)cc21 (stereo not shown) [Compound 30a, 2-{1-Benzyl-2-oxo-5-[2-(pyridine-3-yloxymethyl)-pyrrolidine-1-sulfonyl]-1,2-dihydro-indol-3-yl-idene}-malononitrile]
- IC50 ([1]; IC50 (nM) Casp-7, Table 7): 32.8 ± 4.9 nM
- IC50 ([1]; IC50 (nM) Caspase 7, Table 2): 32.8 ± 4.9 nM
- IC50 ([1]; IC50 for caspase-7): 32.8 nM
- IC50 [3]: 823 ± 86 nM
- IC50 ([3]; read-out: IC50 for caspase-6): 515 to 770 nM
- IC50 ([2]; IC50 (nM) Casp-3, Table 7): 7.6 ± 1.1 nM
- IC50 ([2]; IC50 (nM) Caspase 3, Table 2): 7.6 ± 1.1 nM
- IC50 ([2]; IC50 for caspase-3): 7.6 nM
- IC50 [4]: 3250 nM
- IC50 ([4]; IC50 (nM) Casp-1, Table 7): 3250 ± 450 nM
- IC50 ([4]; read-out: IC50 for caspase-1): 2700 to 3200 nM
- IC50 [5, 11]: > 50000 nM
- IC50 [5, 12]: > 50000 nM
- IC50 ([5]; read-out: IC50 for caspase-8): > 50000 nM

SMILES: CSc1ccc(CN2C(=O)C(=O)c3cc(S(=O)(=O)N4CCCC4COc4cccnc4)ccc32)cc1 (stereo not shown) [Compound 21d, 1-(4-Methylthiobenzyl)-5-(2-(pyridin-3-yl-oxymethyl)-pyrrolidine-1-sulfonyl)-1H-indole-2,3-dione]
- IC50 [1, 6]: 23.3 ± 0.7 nM
- IC50 [3, 7]: > 5000 nM
- IC50 [2, 8]: 4.4 ± 1.4 nM
- IC50 [4, 9]: > 50000 nM
- IC50 [5, 10]: > 50000 nM

SMILES: O=C1C(=O)N(Cc2ccc(Br)cc2)c2ccc(S(=O)(=O)N3CCCC3COc3ccccc3)cc21 (stereo not shown) [Compound 25d, 1-(4-Bromo-benzyl)-5-(2-Phenoxymethyl-pyrrolidine-1-sulfonyl)-1H-indole-2,3-dione]
- IC50 ([1]; IC50 (nM) Casp-7, Table 7): 34.8 ± 1.4 nM
- IC50 ([1]; IC50 (nM) Caspase 7, Table 1): 34.8 ± 1.4 nM
- IC50 [3]: 8900 nM
- IC50 ([2]; IC50 (nM) Casp-3, Table 7): 9.85 ± 0.9 nM
- IC50 ([2]; IC50 (nM) Caspase 3, Table 1): 9.9 ± 0.9 nM
- IC50 ([4]; Table 1, read-out: IC50 (nM) Caspase 1): > 15000 nM
- IC50 ([4]; Table 7, read-out: IC50 (nM) Casp-1): > 15000 nM
- IC50 ([5]; Table 1, read-out: IC50 (nM) Caspase 8): > 50000 nM
- IC50 [5, 12]: > 50000 nM

SMILES: N#CC(C#N)=C1C(=O)N(Cc2ccc(Br)cc2)c2ccc(S(=O)(=O)N3CCCC3COc3cccnc3)cc21 (stereo not shown) [Compound 30c, 2-{1-(4-Bromo-benzyl)-2-oxo-5-[2-(pyndine-3-yloxymethyl)-pyrrolidine-1-sulfonyl]-1,2-dihydro-indol-3-yl-idene}-malononitrile]
- IC50 ([1]; IC50 (nM) Casp-7, Table 7): 26.3 ± 0.8 nM
- IC50 ([1]; IC50 (nM) Caspase 7, Table 2): 26.3 ± 0.8 nM
- IC50 ([1]; IC50 for caspase-7): 26.3 nM
- IC50 [3]: 515 ± 77 nM
- IC50 ([3]; read-out: IC50 for caspase-6): 515 to 770 nM
- IC50 ([2]; IC50 (nM) Caspase 3, Table 2): 5.13 ± 0.7 nM
- IC50 ([2]; IC50 for caspase-3): 5.1 nM
- IC50 [4]: 3400 nM
- IC50 ([4]; IC50 (nM) Casp-1, Table 7): 3400 nM
- IC50 ([4]; read-out: IC50 for caspase-1): 2700 to 3200 nM
- IC50 [5, 11]: > 50000 nM
- IC50 [5, 12]: > 50000 nM
- IC50 ([5]; read-out: IC50 for caspase-8): > 50000 nM
